# According to PubChem BioAssay (NCI):
#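 Interpolation was linear, between the two tested concentrations surrounding the appropriate level; five concentrations were tested over 48 hours in 96-well plates. GI50 = concentration required for 50% inhibition of growth. TGI marks complete inhibition of growth.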
# Key:
# Test in all cases: growth of human tumour cells (NCI), 48 h
# SNB-75 CNS = tested on: SNB-75 CNS
# 786-0 renal = tested on: 786-0 renal
# TK-10 renal = tested on: TK-10 renal
# BT-549 breast = tested on: BT-549 breast
# NCI-H226 lung = tested on: NCI-H226 lung
# DU-145 prostate = tested on: DU-145 prostate
# SF-539 CNS = tested on: SF-539 CNS
# LOX IMVI melanoma = tested on: LOX IMVI melanoma
# OVCAR-5 ovarian = tested on: OVCAR-5 ovarian
# M14 melanoma = tested on: M14 melanoma
# U251 CNS = tested on: U251 CNS
# T-47D breast = tested on: T-47D breast
# SW-620 colon = tested on: SW-620 colon
# ACHN renal = tested on: ACHN renal
# RPMI-8226 leukemia = tested on: RPMI-8226 leukemia
# OVCAR-4 ovarian = tested on: OVCAR-4 ovarian
# MALME-3M melanoma = tested on: MALME-3M melanoma
# MDA-MB-435 = tested on: MDA-MB-435
# HCC-2998 colon = tested on: HCC-2998 colon
# CAKI-1 renal = tested on: CAKI-1 renal
# MCF7 breast = tested on: MCF7 breast
# SF-295 CNS = tested on: SF-295 CNS
# PC-3 prostate = tested on: PC-3 prostate
# SR leukemia = tested on: SR leukemia
# HCT-116 colon = tested on: HCT-116 colon
# NCI-H522 lung = tested on: NCI-H522 lung
# K-562 leukemia = tested on: K-562 leukemia
# MOLT-4 leukemia = tested on: MOLT-4 leukemia
# HL-60(TB) leukemia = tested on: HL-60(TB) leukemia
# EKVX NSCLC = tested on: EKVX NSCLC
# SN12C renal = tested on: SN12C renal
# SF-268 CNS = tested on: SF-268 CNS
# KM12 colon = tested on: KM12 colon
# UO-31 renal = tested on: UO-31 renal
# COLO 205 colon = tested on: COLO 205 colon
# SK-MEL-28 melanoma = tested on: SK-MEL-28 melanoma
# HOP-62 NSCLC = tested on: HOP-62 NSCLC
# SK-MEL-5 melanoma = tested on: SK-MEL-5 melanoma
# SK-OV-3 ovarian = tested on: SK-OV-3 ovarian
# UACC-62 melanoma = tested on: UACC-62 melanoma
# A549 NSCLC = tested on: A549 NSCLC
# A498 renal = tested on: A498 renal
# SK-MEL-2 melanoma = tested on: SK-MEL-2 melanoma
# HCT-15 colon = tested on: HCT-15 colon
# UACC-257 melanoma = tested on: UACC-257 melanoma
# NCI/ADR-RES ovarian = tested on: NCI/ADR-RES ovarian
# CCRF-CEM leukemia = tested on: CCRF-CEM leukemia
# HS 578T breast = tested on: HS 578T breast
# SNB-19 CNS = tested on: SNB-19 CNS
# OVCAR-3 ovarian = tested on: OVCAR-3 ovarian
# NCI-H460 lung = tested on: NCI-H460 lung
# MDA-MB-468 breast = tested on: MDA-MB-468 breast
# HOP-92 NSCLC = tested on: HOP-92 NSCLC
# MDA-MB-231 breast = tested on: MDA-MB-231 breast
# IGROV1 ovarian = tested on: IGROV1 ovarian
# NCI-H23 lung = tested on: NCI-H23 lung
# OVCAR-8 ovarian = tested on: OVCAR-8 ovarian
# HT29 colon = tested on: HT29 colon
compound,measurement,setting,value
Clc1ccc2c(NCCNC34CC5CC(CC(C5)C3)C4)ccnc2c1,GI50,SNB-75 CNS,3.15 µM
same,TGI,SNB-75 CNS,6.97 µM
same,GI50,786-0 renal,2.41 µM
same,TGI,786-0 renal,5.57 µM
same,GI50,TK-10 renal,3.71 µM
same,TGI,TK-10 renal,7.28 µM
same,GI50,BT-549 breast,2.67 µM
same,TGI,BT-549 breast,6.03 µM
same,GI50,NCI-H226 lung,3.04 µM
same,TGI,NCI-H226 lung,6.5 µM
same,GI50,DU-145 prostate,3.57 µM
same,TGI,DU-145 prostate,6.72 µM
same,GI50,SF-539 CNS,0.533 µM
same,TGI,SF-539 CNS,1.21 µM
same,GI50,LOX IMVI melanoma,1.06 µM
same,TGI,LOX IMVI melanoma,4.07 µM
same,GI50,OVCAR-5 ovarian,2.9 µM
same,TGI,OVCAR-5 ovarian,6.05 µM
same,GI50,M14 melanoma,0.43 µM
same,TGI,M14 melanoma,0.837 µM
same,GI50,U251 CNS,1.32 µM
same,TGI,U251 CNS,4.78 µM
same,GI50,T-47D breast,3.33 µM
same,TGI,T-47D breast,7.75 µM
same,GI50,SW-620 colon,2.83 µM
same,TGI,SW-620 colon,6 µM
same,GI50,ACHN renal,2.88 µM
same,TGI,ACHN renal,5.83 µM
same,GI50,RPMI-8226 leukemia,1.22 µM
same,TGI,RPMI-8226 leukemia,9.55 µM
same,GI50,OVCAR-4 ovarian,2.95 µM
same,TGI,OVCAR-4 ovarian,7.8 µM
same,GI50,MALME-3M melanoma,1.25 µM
same,TGI,MALME-3M melanoma,4.24 µM
same,GI50,MDA-MB-435,0.566 µM
same,TGI,MDA-MB-435,1.6 µM
same,GI50,HCC-2998 colon,0.889 µM
same,TGI,HCC-2998 colon,3.32 µM
same,GI50,CAKI-1 renal,2.82 µM
same,TGI,CAKI-1 renal,5.76 µM
same,GI50,MCF7 breast,0.868 µM
same,TGI,MCF7 breast,3.47 µM
same,GI50,SF-295 CNS,3.47 µM
same,TGI,SF-295 CNS,6.67 µM
same,GI50,PC-3 prostate,3.1 µM
same,TGI,PC-3 prostate,7.77 µM
same,GI50,SR leukemia,0.622 µM
same,TGI,SR leukemia,2.31 µM
same,GI50,HCT-116 colon,1.43 µM
same,TGI,HCT-116 colon,4.91 µM
same,GI50,NCI-H522 lung,2.9 µM
same,TGI,NCI-H522 lung,6.34 µM
same,GI50,K-562 leukemia,0.756 µM
same,TGI,K-562 leukemia,4.57 µM
same,GI50,MOLT-4 leukemia,3.63 µM
same,TGI,MOLT-4 leukemia,10.2 µM
same,GI50,HL-60(TB) leukemia,3.69 µM
same,TGI,HL-60(TB) leukemia,8.73 µM
same,GI50,EKVX NSCLC,3.53 µM
same,TGI,EKVX NSCLC,7.16 µM
same,GI50,SN12C renal,3.24 µM
same,TGI,SN12C renal,6.34 µM
same,GI50,SF-268 CNS,3.03 µM
same,TGI,SF-268 CNS,6.14 µM
same,GI50,KM12 colon,2.87 µM
same,TGI,KM12 colon,5.82 µM
same,GI50,UO-31 renal,2.57 µM
same,TGI,UO-31 renal,5.38 µM
same,GI50,COLO 205 colon,0.416 µM
same,TGI,COLO 205 colon,1 µM
same,GI50,SK-MEL-28 melanoma,3.15 µM
same,TGI,SK-MEL-28 melanoma,6.2 µM
same,GI50,HOP-62 NSCLC,3.7 µM
same,TGI,HOP-62 NSCLC,7.41 µM
same,GI50,SK-MEL-5 melanoma,3.12 µM
same,TGI,SK-MEL-5 melanoma,6.12 µM
same,GI50,SK-OV-3 ovarian,4.32 µM
same,TGI,SK-OV-3 ovarian,8.21 µM
same,GI50,UACC-62 melanoma,3.03 µM
same,TGI,UACC-62 melanoma,6.05 µM
same,GI50,A549 NSCLC,3.19 µM
same,TGI,A549 NSCLC,7.18 µM
same,GI50,A498 renal,3.09 µM
same,TGI,A498 renal,6.1 µM
same,GI50,SK-MEL-2 melanoma,3.37 µM
same,TGI,SK-MEL-2 melanoma,6.62 µM
same,GI50,HCT-15 colon,0.763 µM
same,TGI,HCT-15 colon,3.28 µM
same,GI50,UACC-257 melanoma,3.24 µM
same,TGI,UACC-257 melanoma,6.62 µM
same,GI50,NCI/ADR-RES ovarian,3.21 µM
same,TGI,NCI/ADR-RES ovarian,6.42 µM
same,GI50,CCRF-CEM leukemia,5 µM
same,TGI,CCRF-CEM leukemia,12.9 µM
same,GI50,HS 578T breast,2.64 µM
same,TGI,HS 578T breast,6.51 µM
same,GI50,SNB-19 CNS,3.8 µM
same,TGI,SNB-19 CNS,7.19 µM
same,GI50,OVCAR-3 ovarian,3.11 µM
same,TGI,OVCAR-3 ovarian,6.1 µM
same,GI50,NCI-H460 lung,3.31 µM
same,TGI,NCI-H460 lung,6.61 µM
same,GI50,MDA-MB-468 breast,0.435 µM
same,TGI,MDA-MB-468 breast,1.21 µM
same,GI50,HOP-92 NSCLC,0.484 µM
same,TGI,HOP-92 NSCLC,3.17 µM
same,GI50,MDA-MB-231 breast,2.38 µM
same,TGI,MDA-MB-231 breast,5.19 µM
same,GI50,IGROV1 ovarian,3.37 µM
same,TGI,IGROV1 ovarian,6.65 µM
same,GI50,NCI-H23 lung,3.41 µM
same,TGI,NCI-H23 lung,6.82 µM
same,GI50,OVCAR-8 ovarian,2.9 µM
same,TGI,OVCAR-8 ovarian,6.16 µM
same,GI50,HT29 colon,0.675 µM
same,TGI,HT29 colon,2.71 µM
